US6372804B1, “Noxious-insect repellent” (Kanebo, Ltd., priority 1991, dated 2002)
One block for each compound: values may come before it.

Assays:
[1] = solubility in a 90 wt. % ethanol aqueous solution; assay type: physicochemical; design: key: ◯: Soluble; X: Insoluble
Protocol: (§1) With the purpose of investigating the properties of the compounds to be used for the present invention, solubilities in a 90 wt. % ethanol aqueous solution and stabilities at 0° C., room temperature and 40° C., of hydroxymethyl-menthol, 2-hydroxymethyl-2-butyl-cyclopentanol and 2-(1-hydroxyisopropyl)-5,6-dimethyl-cyclohexanone, were investigated. […] Furthermore, it can be understood that the quantity of the repellent compound is preferred to be at most 20% by weight, in view of touch in use.

[2] = tested on: imagoes of the tiger mosquito, Aedes albopictus; test: noxious-insect repellency test (treated forearm in a cage of tiger mosquitoes, percent repellency from biting marks); assay type: in vivo; conditions: for Percent repellency: an hour after application; for noxious-insect repelling effect and durability (result in words): lotion or milky lotion containing the compound, tiger mosquito imagoes
Protocol: In each example, the noxious-insect repellency test was conducted as follows:
Test method of noxious-insect repelling effect and durability thereof In order to assess the repelling effect against imagoes of the tiger mosquito, Aedes albopictus, the following test was conducted at a room temperature of 30° C. and a relative humidity of 70% in an air-conditioned room. 10 ml each of test samples was applied to left and right forearms. Each treated forearm was introduced into a wire gauze cage (20 cm L.×15 cm Dia.) containing 50 female and 50 male tiger mosquitoes 5-7 days old after eclosion, for 15 minutes to afford time for biting. The assessment was repeated 30 minutes, 1 hour, 2 hours, 4 hours and 6 hours after the test sample was applied. The number of marks made by biting within each biting time was counted and a percent repellency was calculated using the following formula:
Percent repellency=(X−Y)/X×100 (%)
X: the number of the marks made by biting when the test sample was not applied,
Y: the number of the marks made by biting when the test sample was applied.

[3] = stability in a 90 wt. % ethanol aqueous solution at 0° C., room temperature and 40° C.; assay type: physicochemical; design: key: ◯: Stable; X: Precipitated
Protocol: as §1

[4] = 0° C., content 10% (wt. %) in 90 wt. % ethanol aqueous solution
[5] = 0° C., content 20% (wt. %) in 90 wt. % ethanol aqueous solution
[6] = 0° C., content 50% (wt. %) in 90 wt. % ethanol aqueous solution
[7] = 0° C., content 90% (wt. %) in 90 wt. % ethanol aqueous solution
[8] = 0° C., content 95% (wt. %) in 90 wt. % ethanol aqueous solution
[9] = 40° C., content 10% (wt. %) in 90 wt. % ethanol aqueous solution
[10] = 40° C., content 20% (wt. %) in 90 wt. % ethanol aqueous solution
[11] = 40° C., content 50% (wt. %) in 90 wt. % ethanol aqueous solution
[12] = 40° C., content 90% (wt. %) in 90 wt. % ethanol aqueous solution
[13] = 40° C., content 95% (wt. %) in 90 wt. % ethanol aqueous solution
[14] = room temperature, content 10% (wt. %) in 90 wt. % ethanol aqueous solution
[15] = room temperature, content 20% (wt. %) in 90 wt. % ethanol aqueous solution
[16] = room temperature, content 50% (wt. %) in 90 wt. % ethanol aqueous solution
[17] = room temperature, content 90% (wt. %) in 90 wt. % ethanol aqueous solution
[18] = room temperature, content 95% (wt. %) in 90 wt. % ethanol aqueous solution

Solubility [1, 4]: ◯
Solubility [1, 5]: ◯
Solubility [1, 6]: ◯
Solubility [1, 7]: ◯
Solubility [1, 8]: ◯
Solubility [1, 9]: ◯
Solubility [1, 10]: ◯
Solubility [1, 11]: ◯
Solubility [1, 12]: ◯
Solubility [1, 13]: ◯
Solubility [1, 14]: ◯
Solubility [1, 15]: ◯
Solubility [1, 16]: ◯
Solubility [1, 17]: ◯
Solubility [1, 18]: ◯
Stability [3, 4]: ◯
Stability [3, 5]: ◯
Stability [3, 6]: ◯
Stability [3, 7]: ◯
Stability [3, 8]: X
Stability [3, 9]: ◯
Stability [3, 10]: ◯
Stability [3, 11]: ◯
Stability [3, 12]: ◯
Stability [3, 13]: ◯
Stability [3, 14]: ◯
Stability [3, 15]: ◯
Stability [3, 16]: ◯
Stability [3, 17]: ◯
Stability [3, 18]: X
Compound: CCCCC1(CO)CCCC1O (centres unmarked) [2-Hydroxymethyl-2-butyl-cyclopentanol, 2-hydroxymethyl-2-butyl-cyclopentanol]
Percent repellency ([2]; content 0.1% (wt. %) in 40 wt. % ethanol aqueous solution): 24%
Percent repellency ([2]; content 1% (wt. %) in 40 wt. % ethanol aqueous solution): 60%
Percent repellency ([2]; content 3% (wt. %) in 40 wt. % ethanol aqueous solution): 88%

Compound: p-menthane-2-ethyl-3,8-diol
noxious-insect repelling effect and durability (result in words) [2]: excellent noxious-insect repelling effect and durability

Compound: p-menthane-2-hexyl-3,8-diol
noxious-insect repelling effect and durability (result in words) [2]: excellent noxious-insect repelling effect and durability
